Results from patent publication US9670209B2 (ACADIA Pharmaceuticals Inc., priority 2013, dated 2017).
Marks after values point to notes of the source that are not given here.

Legend:
[1] = biological target: human M1 muscarinic acetylcholine receptor (Homo sapiens (Human), UniProt P11229); assay: R-SAT (Receptor Selection and Amplification) assay, M1; type: cell-based; conditions: for M1 PEC50 AVG: NIH-3T3 cells; for Emax: read-out: M1 EFF % AVG
Experimental: (§1) Briefly, NIH-3T3 cells were grown in 96-well tissue culture plates to 70% to 80% confluence. Cells were transfected with plasmid DNAs using Superfect Reagent (QIAGEN, Valencia, Calif.) as per the manufacturer's protocols. […] Cells were then grown in a humidified atmosphere with 5% ambient CO2 for 4 to 6 days. Media were then removed from the plates, and beta-galactosidase activity was measured by the addition of o-nitrophenyl-D-galactopyranoside (in phosphate-buffered saline with 5% NP-40 detergent). […] All data represent the mean of three wells and were analyzed using the computer program Excel Fit, and EC50 determinations were made using least-squares fit analysis with GraphPad Software Inc. (San Diego, Calif.) software.

[2] = biological target: human M2 muscarinic acetylcholine receptor (Homo sapiens (Human), UniProt P08172); assay: R-SAT (Receptor Selection and Amplification) assay, M2; type: cell-based; conditions: for M2 PEC50 AVG: NIH-3T3 cells; for Emax: read-out: M2 EFF % AVG
Chain of human M2 muscarinic acetylcholine receptor (P08172 whole entry): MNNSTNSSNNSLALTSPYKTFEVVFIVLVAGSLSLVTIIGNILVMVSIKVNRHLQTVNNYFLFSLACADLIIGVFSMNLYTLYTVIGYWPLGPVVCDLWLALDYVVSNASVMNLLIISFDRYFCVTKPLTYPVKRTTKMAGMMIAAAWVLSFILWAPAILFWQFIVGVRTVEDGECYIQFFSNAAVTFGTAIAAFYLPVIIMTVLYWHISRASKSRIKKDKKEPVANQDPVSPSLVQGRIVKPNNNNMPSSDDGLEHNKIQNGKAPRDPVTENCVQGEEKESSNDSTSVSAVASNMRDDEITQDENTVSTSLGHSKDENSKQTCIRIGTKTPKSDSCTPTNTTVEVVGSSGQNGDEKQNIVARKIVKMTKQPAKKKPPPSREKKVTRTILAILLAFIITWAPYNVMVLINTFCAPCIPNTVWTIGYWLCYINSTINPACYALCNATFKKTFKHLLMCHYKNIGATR
Experimental: as §1

[3] = biological target: human M3 muscarinic acetylcholine receptor (Homo sapiens (Human), UniProt P20309); assay: R-SAT (Receptor Selection and Amplification) assay, M3; type: cell-based; conditions: for M3 PEC50 AVG: NIH-3T3 cells; for Emax: read-out: M3 EFF % AVG
Chain of human M3 muscarinic acetylcholine receptor (P20309 whole entry): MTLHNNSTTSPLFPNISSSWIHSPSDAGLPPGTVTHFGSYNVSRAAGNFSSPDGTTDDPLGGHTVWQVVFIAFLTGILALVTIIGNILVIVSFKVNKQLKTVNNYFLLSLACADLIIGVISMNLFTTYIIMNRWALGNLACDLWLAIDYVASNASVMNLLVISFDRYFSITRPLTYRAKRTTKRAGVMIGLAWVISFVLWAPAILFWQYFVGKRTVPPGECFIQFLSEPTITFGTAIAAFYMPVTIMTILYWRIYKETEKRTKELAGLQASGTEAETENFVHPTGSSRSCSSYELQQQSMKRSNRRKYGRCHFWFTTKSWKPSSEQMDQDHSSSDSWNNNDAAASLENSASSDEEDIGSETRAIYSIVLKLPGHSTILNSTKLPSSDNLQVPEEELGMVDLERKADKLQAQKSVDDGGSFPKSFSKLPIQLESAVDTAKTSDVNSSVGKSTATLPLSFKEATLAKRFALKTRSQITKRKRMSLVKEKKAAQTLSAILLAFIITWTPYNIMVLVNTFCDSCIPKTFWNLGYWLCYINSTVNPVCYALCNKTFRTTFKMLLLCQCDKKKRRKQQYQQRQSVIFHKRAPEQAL
Experimental: as §1

M1 muscarinic receptor = M1 muscarinic receptor (Homo sapiens (Human), UniProt P11229); assay: M1 GTPγS binding assay; type: biochemical; conditions: for Emax: read-out: M1 GTPγS EFF % AVG;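 on Emax: efficacy relative to carbachol as 100%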
Chain of M1 muscarinic receptor (P11229 whole entry): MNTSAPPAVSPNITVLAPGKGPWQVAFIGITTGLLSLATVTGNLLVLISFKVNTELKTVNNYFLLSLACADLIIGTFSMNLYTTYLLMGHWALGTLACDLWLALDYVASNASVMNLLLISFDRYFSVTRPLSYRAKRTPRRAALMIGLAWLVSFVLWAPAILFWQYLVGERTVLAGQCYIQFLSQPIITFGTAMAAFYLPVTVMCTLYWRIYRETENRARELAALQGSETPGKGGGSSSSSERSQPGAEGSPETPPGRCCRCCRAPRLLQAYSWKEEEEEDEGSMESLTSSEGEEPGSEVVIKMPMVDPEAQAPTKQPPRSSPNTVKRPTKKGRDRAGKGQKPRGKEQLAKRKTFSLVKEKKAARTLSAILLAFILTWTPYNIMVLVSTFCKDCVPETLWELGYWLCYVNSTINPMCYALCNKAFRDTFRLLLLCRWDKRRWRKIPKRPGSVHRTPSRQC

tear secretion = assay: Tear secretion (phenol red thread) in mice; type: in vivo, balb/c mice; conditions: for Effects on tear secretion compared to Comparative Compound 2: other studies using the same method (Table 2), statistically significant compared to vehicle
Experimental: The tear distance, in mm, is recorded. The mice were not anesthetized or otherwise sedated. […] Data are analyzed by repeated measures ANOVA with post-hoc Bonferroni comparisons to vehicle. […] Further details can be seen in FIG. 2.

[4] = percent efficacy vs carbachol = 100 percent
[5] = second study of Table 2, 1 hr post-dosing, 5 μl drop of 0.1% to each eye
[6] = second study of Table 2, 3 hr post-dosing, 5 μl drop of 0.1% to each eye
[7] = R-SAT, percent efficacy vs carbachol = 100 percent
[8] = first study of Table 2, 1 hr post-dosing, 5 μl drop of 0.1% to each eye
[9] = third study (pilocarpine 24-hour study), 3 hr post-dosing, 0.1% 5 μl drop, Pilocarpine 0.2% 20 μl drop
[10] = third study (pilocarpine 24-hour study), 6 hr post-dosing, 0.1% 5 μl drop, Pilocarpine 0.2% 20 μl drop
[11] = third study (pilocarpine 24-hour study), 24 hr post-dosing, 0.1% 5 μl drop, Pilocarpine 0.2% 20 μl drop

Chain of human M1 muscarinic acetylcholine receptor (P11229 whole entry): as above

Compound | M1 PEC50 AVG [1] | Emax [1, 4] [%] | M2 PEC50 AVG ([2]; R-SAT) | Emax [2] [%] | Emax [3] [%] | Emax (M1 muscarinic receptor) [%] | EC50 (M1 muscarinic receptor) [nM] | further results
COCC[C@H]1C[C@H]2CC[C@@H](C1)N2C[C@@H](C)Cn1ncc2ccc(F)cc21 [Compound 309, 1-((R)-3-(3-(2-Methoxyethyl)-8-aza-bicyclo[3.2.1]octan-8-yl)-2-methylpropyl)-6-fluoro-1H-indazole] | 9.4 | 123 | 7.5 | 176 | 18 | 53 |  | M3 PEC50 AVG ([3]; R-SAT): 6.9; M1 GTPγS PEC50 AVG (M1 muscarinic receptor; GTPγS binding): 7.3
COC/C=C1\C[C@H]2CC[C@@H](C1)N2C[C@@H](C)Cn1ncc2ccccc21 [Compound 320s, 1-((R)-3-((1R,3R,58)-3-(2-methoxyethylidene)-8-azabicyclo[3.2.1]octan-8-yl)-2-methylpropyl)-1H-indazole] | 8.2 | 109 | 7.2 | 90 | 8 | 60 | 158 | 
Cc1nn(C[C@H](C)CN2[C@@H]3CC[C@H]2C[C@@H](OCC2CC2)C3)c2ccccc12 [Compound 316, 1-((R)-3-(3-(cyclopropylmethoxy)-8-aza-bicyclo[3.2.1]octan-8-yl)-2-methylpropyl)-3-methyl-1H-indazole] | 7.9 | 78 | 6.6 | 81 | 5 | 88 | 31.6 | 
COCC[C@H]1C[C@H]2CC[C@@H](C1)N2C[C@@H](C)Cn1ncc2ccccc21 [Compound 303S, 1-((R)-3-((1R,3R,5S)-3-(2-Methoxyethyl)-8-azabicyclo[3.2.1]octan-8-yl)-2-methylpropyl)-1H-indazole] | 8.4 | 121 | 7.1 | 102 | 8 | 67 | 63.1 | Effects on tear secretion compared to Comparative Compound 2 (tear secretion): greater than that of Comparative Compound 2; Tear secretion (tear secretion; [5]): 131%; Tear secretion (tear secretion; [6]): 134% *
Cc1ccc2c(cnn2C[C@H](C)CN2[C@@H]3CC[C@H]2C[C@@H](OCC2CC2)C3)c1 [Compound 321, 1-((R)-3-(3-(cyclopropylmethoxy)-8-aza-bicyclo[3.2.1]octan-8-yl)-2-methylpropyl)-5-methyl-1H-indazole] | 7.9 | 75 | 8.1 | 19 | 3 | 56 | 63.1 | 
CC(C)(C)OC(=O)N1C2CC[C@H]1C[C@@H](O)C2 [Comparative compound 2, reference compound] | 9.0 |  | 7.1 |  |  |  |  | M1 EFF % AVG [1, 4]: 126%; M2 EFF % AVG [2, 7]: 52%; M3 PEC50 AVG ([3]; R-SAT): 7.1; M3 EFF % AVG [3, 7]: 30%; M1 GTPγS PEC50 AVG (M1 muscarinic receptor; GTPγS binding): 7.9; M1 GTPγS EFF % AVG (M1 muscarinic receptor; GTPγS binding, percent efficacy vs carbachol = 100 percent): 32%; Tear secretion (tear secretion; [8]): 149% *; Effect on tear secretion compared to vehicle (tear secretion; pilocarpine 24-hour study): not significantly different from vehicle; Tear secretion (tear secretion; [5]): 113%; Tear secretion (tear secretion; [6]): 123%; Tear secretion (tear secretion; [9]): 134%; Tear secretion (tear secretion; [10]): 110%; Tear secretion (tear secretion; [11]): 98%
CCOCC[C@H]1C[C@H]2CC[C@@H](C1)N2C[C@@H](C)Cn1ncc2ccccc21 [Compound 323, 1-((R)-3-((1R,3R,5S)-3-(2-ethoxyethyl)-8-azabicyclo[3.2.1]octan-8-yl)-2-methylpropyl)-1H-indazole] | 9.1 | 66 | 7.8 | 34 | -2 | 32 | 20 | 
C[C@H](CN1[C@@H]2CC[C@H]1C[C@@H](OC1CCCC1)C2)Cn1ncc2ccccc21 [Compound 314s, 1-((R)-3-((1R,3R,58)-3-(cyclopentyloxy)-8-azabicyclo[3.2.1]octan-8-yl)-2-methylpropyl)-1H-indazole] | 8.4 | 104 | 7.3 | 74 | 8 | 48 | 25.1 | 
C=CCO[C@H]1C[C@H]2CC[C@@H](C1)N2C[C@@H](C)Cn1ncc2ccc(F)cc21 [Compound 308, 1-((R)-3-(3-(Allyloxy)-8-aza-bicyclo[3.2.1]octan-8-yl)-2-methylpropyl)-6-fluoro-1H-indazole] | 8.9 | 131 | 7.4 | 152 | 18 | 66 |  | M3 PEC50 AVG ([3]; R-SAT): 6.3; M1 GTPγS PEC50 AVG (M1 muscarinic receptor; GTPγS binding): 7.1
CC[C@@H]1C(=O)OC[C@@H]1Cc1cncn1C [Pilocarpine, reference compound] |  |  |  |  |  |  |  | Tear secretion compared to vehicle (tear secretion; pilocarpine 24-hour study, 3 and 6 hours post-dosing): statistically significant improved tear secretion; Tear secretion (tear secretion; [9]): 142% *; Tear secretion (tear secretion; [10]): 136% *; Tear secretion (tear secretion; [11]): 113%
C#CCO[C@H]1C[C@H]2CC[C@@H](C1)N2C[C@@H](C)Cn1ncc2ccc(OC)cc21 [Compound 322s, 1-((R)-3-((1R,3R,5S)-3-(prop-2-ynyloxy)-8-azabicyclo[3.2.1]octan-8-yl)-2-methylpropyl)-6-methoxy-1H-indazole] | 8.0 | 86 | 7.1 | 44 | 5 | 42 | 79.4 | 
CCCO[C@H]1C[C@H]2CC[C@@H](C1)N2C[C@@H](C)Cn1ncc2ccccc21 [Compound 319s, 1-((R)-3-(3-(propoxy)-8-aza-bicyclo[3.2.1]octan-8-yl)-2-methylpropyl)-1H-indazole] | 8.1 | 111 | 7.5 | 102 | 3 | 63 | 200 | 
C=CCO[C@H]1C[C@H]2CC[C@@H](C1)N2C[C@@H](C)Cn1ncc2ccccc21 [Compound 305, 1-((R)-3-((1R,3R,5S)-3-(Allyloxy)-8-azabicyclo[3.2.1]octan-8-yl)-2-methylpropyl)-1H-indazole] | 8.1 | 115 | 6.9 | 107 | 4 | 70 | 79.4 | Tear secretion (tear secretion; [8]): 163% *; Effects on tear secretion compared to Comparative Compound 2 (tear secretion): greater than that of Comparative Compound 2
